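Step 1: Grow cells in 96-well plates. Step 2: Expose to compound for 48 hours at 5 concentrations. Step 3: Interpolate endpoints linearly; if unreached, use highest concentration. At the GI50, growth is halved. TGI denotes the concentration required for complete inhibition of growth.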
Assays:
Test in all cases: NCI anticancer screen, dose series, 48 h
[1] = system: KM12 colon
[2] = system: LOX IMVI melanoma
[3] = system: HCT-116 colon
[4] = system: A549 NSCLC
[5] = system: OVCAR-8 ovarian
[6] = system: UO-31 renal
[7] = system: HL-60(TB) leukemia
[8] = system: SK-MEL-28 melanoma
[9] = system: K-562 leukemia
[10] = system: NCI-H460 lung
[11] = system: OVCAR-4 ovarian
[12] = system: EKVX NSCLC
[13] = system: MCF7 breast
[14] = system: CAKI-1 renal
[15] = system: SK-MEL-5 melanoma
[16] = system: MDA-MB-435
[17] = system: PC-3 prostate
[18] = system: SF-295 CNS
[19] = system: HS 578T breast
[20] = system: UACC-257 melanoma
[21] = system: MDA-MB-231 breast
[22] = system: SF-539 CNS
[23] = system: SN12C renal
[24] = system: SW-620 colon
[25] = system: RPMI-8226 leukemia
[26] = system: HCT-15 colon
[27] = system: OVCAR-5 ovarian
[28] = system: U251 CNS
[29] = system: T-47D breast
[30] = system: SK-OV-3 ovarian
[31] = system: NCI-H23 lung
[32] = system: HOP-92 NSCLC
[33] = system: 786-0 renal
[34] = system: IGROV1 ovarian
[35] = system: SNB-75 CNS
[36] = system: ACHN renal
[37] = system: MOLT-4 leukemia
[38] = system: UACC-62 melanoma
[39] = system: COLO 205 colon
[40] = system: TK-10 renal
[41] = system: DU-145 prostate
[42] = system: SK-MEL-2 melanoma
[43] = system: MALME-3M melanoma
[44] = system: SF-268 CNS
[45] = system: NCI-H522 lung
[46] = system: NCI/ADR-RES ovarian
[47] = system: BT-549 breast
[48] = system: NCI-H226 lung
[49] = system: SNB-19 CNS
[50] = system: A498 renal
[51] = system: HT29 colon
[52] = system: HOP-62 NSCLC
[53] = system: RXF 393 renal
[54] = system: CCRF-CEM leukemia
[55] = system: SR leukemia
[56] = system: OVCAR-3 ovarian
[57] = system: M14 melanoma
[58] = system: HCC-2998 colon

Cc1ccc(S(=O)(=O)OC2CN3CCC2CC3)cc1 (configuration not stated)
TGI [1]: > 100 µM
TGI [2]: > 100 µM
TGI [3]: > 100 µM
TGI [4]: > 100 µM
TGI [5]: > 100 µM
TGI [6]: > 100 µM
TGI [7]: > 100 µM
TGI [8]: > 100 µM
TGI [9]: > 100 µM
TGI [10]: > 100 µM
TGI [11]: > 100 µM
TGI [12]: > 100 µM
TGI [13]: > 100 µM
TGI [14]: > 100 µM
TGI [15]: > 100 µM
TGI [16]: > 100 µM
TGI [17]: > 100 µM
TGI [18]: > 100 µM
TGI [19]: > 100 µM
TGI [20]: > 100 µM
TGI [21]: > 100 µM
TGI [22]: > 100 µM
TGI [23]: > 100 µM
TGI [24]: > 100 µM
TGI [25]: > 100 µM
TGI [26]: > 100 µM
TGI [27]: > 100 µM
TGI [28]: > 100 µM
TGI [29]: > 100 µM
TGI [30]: > 100 µM
TGI [31]: > 100 µM
TGI [32]: > 100 µM
TGI [33]: > 100 µM
TGI [34]: > 100 µM
TGI [35]: > 100 µM
TGI [36]: > 100 µM
TGI [37]: > 100 µM
TGI [38]: > 100 µM
TGI [39]: > 100 µM
TGI [40]: > 100 µM
TGI [41]: > 100 µM
TGI [42]: > 100 µM
TGI [43]: > 100 µM
TGI [44]: > 100 µM
TGI [45]: > 100 µM
TGI [46]: > 100 µM
TGI [47]: > 100 µM
TGI [48]: > 100 µM
TGI [49]: > 100 µM
TGI [50]: > 100 µM
TGI [51]: > 100 µM
TGI [52]: > 100 µM
TGI [53]: > 100 µM
TGI [54]: > 100 µM
TGI [55]: > 100 µM
TGI [56]: > 100 µM
TGI [57]: > 100 µM

CCOC(=O)c1ccc(N=C/C=C(\Nc2ccc(C(=O)OCC)cc2)c2ccc3ccccc3c2)cc1
TGI [1]: 48.2 µM
TGI [2]: 34.4 µM
TGI [3]: > 100 µM
TGI [4]: > 100 µM
TGI [5]: > 100 µM
TGI [6]: > 100 µM
TGI [7]: 70.8 µM
TGI [8]: 61.1 µM
TGI [9]: 56.7 µM
TGI [10]: > 100 µM
TGI [11]: 80.3 µM
TGI [13]: 67 µM
TGI [14]: 83.8 µM
TGI [15]: 34.7 µM
TGI [16]: 33.3 µM
TGI [17]: > 100 µM
TGI [18]: > 100 µM
TGI [19]: 96.3 µM
TGI [20]: 92.3 µM
TGI [21]: 80.6 µM
TGI [22]: 39.2 µM
TGI [23]: 58.6 µM
TGI [24]: > 100 µM
TGI [25]: 52.1 µM
TGI [26]: 61.1 µM
TGI [27]: > 100 µM
TGI [28]: > 100 µM
TGI [29]: 43.2 µM
TGI [30]: > 100 µM
TGI [31]: 54 µM
TGI [32]: > 100 µM
TGI [33]: 64.1 µM
TGI [34]: > 100 µM
TGI [35]: > 100 µM
TGI [36]: > 100 µM
TGI [37]: 16.1 µM
TGI [38]: 30.5 µM
TGI [39]: 32.6 µM
TGI [40]: 53.4 µM
TGI [41]: > 100 µM
TGI [42]: 66.9 µM
TGI [43]: 43.6 µM
TGI [44]: > 100 µM
TGI [45]: > 100 µM
TGI [46]: 70.3 µM
TGI [47]: 42.4 µM
TGI [48]: 96.9 µM
TGI [49]: > 100 µM
TGI [50]: > 100 µM
TGI [51]: 49 µM
TGI [52]: 95.8 µM
TGI [53]: 57.3 µM
TGI [54]: 46.5 µM
TGI [55]: 41.6 µM
TGI [56]: 83.5 µM
TGI [57]: 59 µM

O=C1NC(=NCc2ccccn2)S/C1=C\c1ccc2ncccc2c1
GI50 [1]: 13.2 µM
TGI [1]: > 25 µM
GI50 [2]: 13.1 µM
TGI [2]: > 25 µM
GI50 [3]: 8.86 µM
TGI [3]: > 25 µM
GI50 [4]: 8.41 µM
TGI [4]: > 25 µM
GI50 [5]: 14.4 µM
TGI [5]: > 25 µM
GI50 [6]: 11.3 µM
TGI [6]: > 25 µM
GI50 [7]: 6.56 µM
TGI [7]: > 25 µM
GI50 [8]: > 23.7 µM
TGI [8]: > 25 µM
GI50 [9]: 8.29 µM
TGI [9]: > 25 µM
GI50 [10]: 9.07 µM
TGI [10]: > 25 µM
GI50 [11]: 9.74 µM
TGI [11]: 24.7 µM
GI50 [13]: 8.75 µM
TGI [13]: > 25 µM
GI50 [14]: 6.62 µM
TGI [14]: > 18.9 µM
GI50 [15]: 13 µM
TGI [15]: > 25 µM
GI50 [16]: 7.64 µM
TGI [16]: > 21.9 µM
GI50 [17]: > 25 µM
TGI [17]: > 25 µM
GI50 [18]: 14.7 µM
TGI [18]: > 25 µM
GI50 [19]: 6.12 µM
TGI [19]: 21.4 µM
GI50 [20]: > 12.7 µM
TGI [20]: > 25 µM
GI50 [21]: 17.8 µM
TGI [21]: > 25 µM
GI50 [22]: 7.54 µM
TGI [22]: > 25 µM
GI50 [23]: 10.8 µM
TGI [23]: > 25 µM
GI50 [24]: 7.81 µM
TGI [24]: > 25 µM
GI50 [25]: > 12.6 µM
TGI [25]: > 25 µM
GI50 [26]: 6.86 µM
TGI [26]: > 25 µM
GI50 [27]: > 25 µM
TGI [27]: > 25 µM
GI50 [28]: 7.87 µM
TGI [28]: > 25 µM
GI50 [29]: 11.2 µM
TGI [29]: > 25 µM
GI50 [30]: 8.59 µM
TGI [30]: > 23.5 µM
GI50 [31]: 12.1 µM
TGI [31]: > 25 µM
GI50 [32]: 6.5 µM
TGI [32]: > 21.8 µM
GI50 [33]: 13.4 µM
TGI [33]: > 25 µM
GI50 [58]: 13.8 µM
TGI [58]: > 25 µM
GI50 [34]: 17.8 µM
TGI [34]: > 25 µM
GI50 [35]: 4.21 µM
TGI [35]: 22.4 µM
GI50 [36]: 10.2 µM
TGI [36]: > 25 µM
GI50 [37]: 11.3 µM
TGI [37]: > 25 µM
GI50 [38]: > 17.5 µM
TGI [38]: > 25 µM
GI50 [39]: 7.68 µM
TGI [39]: > 25 µM
GI50 [40]: 6.06 µM
TGI [40]: > 20.2 µM
GI50 [41]: 9.81 µM
TGI [41]: > 25 µM
GI50 [42]: 10.7 µM
TGI [42]: > 22.8 µM
GI50 [43]: > 13.1 µM
TGI [43]: > 23.3 µM
GI50 [44]: 8.5 µM
TGI [44]: > 25 µM
GI50 [45]: 7.61 µM
TGI [45]: > 18.8 µM
GI50 [46]: 16.9 µM
TGI [46]: > 25 µM
GI50 [47]: 9.23 µM
TGI [47]: > 25 µM
GI50 [48]: 15 µM
TGI [48]: > 25 µM
GI50 [49]: 10.7 µM
TGI [49]: > 25 µM
GI50 [50]: 3.95 µM
TGI [50]: > 18.8 µM
GI50 [51]: 15 µM
TGI [51]: > 25 µM
GI50 [52]: 13.2 µM
TGI [52]: > 25 µM
GI50 [53]: 8.8 µM
TGI [53]: > 25 µM
GI50 [54]: 10.7 µM
TGI [54]: > 25 µM
GI50 [55]: 6 µM
TGI [55]: 24.8 µM
GI50 [56]: 12.6 µM
TGI [56]: > 25 µM
GI50 [57]: 11.6 µM
TGI [57]: > 25 µM

Reference: PubChem BioAssay (NCI)
